Consider nine compounds from publication PMC11434067, “Bioassay-Guided Isolation and Identification of Xanthine Oxidase Inhibitory Constituents from the Fruits of Chaenomeles speciosa (Sweet) Nakai” (Molecules, 2024).

Assay [1] deals with T1, XO (Bos taurus, UniProt P80457). The assay is described as follows: In vitro xanthine oxidase inhibition assay (uric acid formation, absorbance at 290 nm). Type of assay: biochemical.
In assay [2] the target is T1, XO. To be noted: cited from earlier work.

Where two headings read alike, the source gives them in different places.

As usually defined, the IC50 is the concentration that inhibits the measured activity by half. Higher therefore signals a need for much substance.

T1 sequence (P80457 whole entry): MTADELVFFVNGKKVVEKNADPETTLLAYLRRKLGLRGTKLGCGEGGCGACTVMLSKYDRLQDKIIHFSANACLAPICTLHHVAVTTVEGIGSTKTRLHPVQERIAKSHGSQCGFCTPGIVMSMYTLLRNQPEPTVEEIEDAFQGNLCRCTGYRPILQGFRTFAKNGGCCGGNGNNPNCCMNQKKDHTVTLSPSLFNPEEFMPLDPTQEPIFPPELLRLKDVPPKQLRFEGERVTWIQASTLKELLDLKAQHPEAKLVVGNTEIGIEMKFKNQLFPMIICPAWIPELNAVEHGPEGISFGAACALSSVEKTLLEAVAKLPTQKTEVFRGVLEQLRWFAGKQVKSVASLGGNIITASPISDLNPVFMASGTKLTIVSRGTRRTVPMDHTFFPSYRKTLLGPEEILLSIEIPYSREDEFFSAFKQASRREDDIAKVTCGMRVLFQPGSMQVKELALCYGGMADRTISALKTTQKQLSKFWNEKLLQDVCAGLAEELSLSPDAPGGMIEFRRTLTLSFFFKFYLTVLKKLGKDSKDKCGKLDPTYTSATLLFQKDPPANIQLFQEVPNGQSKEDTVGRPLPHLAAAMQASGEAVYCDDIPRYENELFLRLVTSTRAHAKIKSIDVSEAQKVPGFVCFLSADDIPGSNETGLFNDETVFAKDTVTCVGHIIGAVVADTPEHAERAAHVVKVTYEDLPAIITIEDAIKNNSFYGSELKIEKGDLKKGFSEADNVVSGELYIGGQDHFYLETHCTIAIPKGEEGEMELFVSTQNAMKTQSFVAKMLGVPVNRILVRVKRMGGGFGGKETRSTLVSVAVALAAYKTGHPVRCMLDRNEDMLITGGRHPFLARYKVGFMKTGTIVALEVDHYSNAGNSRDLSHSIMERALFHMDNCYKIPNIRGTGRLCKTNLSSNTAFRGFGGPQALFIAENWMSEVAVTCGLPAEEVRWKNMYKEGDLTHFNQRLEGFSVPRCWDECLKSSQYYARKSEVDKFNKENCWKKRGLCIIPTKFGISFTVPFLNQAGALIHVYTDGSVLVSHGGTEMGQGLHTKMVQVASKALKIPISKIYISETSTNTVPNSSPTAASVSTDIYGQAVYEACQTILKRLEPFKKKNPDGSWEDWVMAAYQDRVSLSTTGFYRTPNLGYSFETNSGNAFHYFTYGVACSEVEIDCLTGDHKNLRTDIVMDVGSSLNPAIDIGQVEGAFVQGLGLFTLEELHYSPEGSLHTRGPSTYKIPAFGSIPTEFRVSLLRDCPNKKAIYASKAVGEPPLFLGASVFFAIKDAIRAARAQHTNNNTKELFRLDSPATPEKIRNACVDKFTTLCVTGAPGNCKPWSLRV

In the case of `CCOC(=O)[C@]1(O)C[C@@H](O)[C@@H](O)[C@H](OC(=O)/C=C/c2ccc(O)c(O)c2)C1` [compound 3, ethyl chlorogenate], the IC50 on XO [1] was 450 µM.

`COC(=O)C1(O)C[C@@H](O)C(OC(=O)/C=C/c2ccc(O)c(O)c2)[C@H](O)C1` (stereo partly drawn) [compound 5, cryptochlorogenic acid methyl ester] showed a 50% inhibitory concentration (IC50) at XO [1] of 600 µM.

`CCCCOC(=O)C1(O)CC(O)C(O)C(OC(=O)C=Cc2ccc(O)c(O)c2)C1` (stereo not drawn) [compound 2, butyl chlorogenate] gave a half-inhibitory concentration (IC50) at XO [1] of 399 µM.

On XO [1], `O=C(O)/C=C/c1ccc(O)cc1` [compound 7, p-coumaric acid] had an IC50 of 351 µM.

As to `O=C(/C=C/c1ccc(O)c(O)c1)O[C@@H]1C[C@](O)(C(=O)O)C[C@@H](O)[C@H]1O` [compound 4, chlorogenic acid], half-maximal inhibition on XO [1] (IC50) was put at 297 µM. The “type of XO inhibition” value is “noncompetitive inhibition” on XO [2] (ref 45) and “non-competitive inhibitory effect” at XO [2] (ref 46).

`O=C(O)c1ccc(O)c(O)c1` [compound 9, protocatechuic acid] showed an IC50 on XO [1] of 651 µM.

On XO [1], `COC(=O)[C@]1(O)C[C@@H](O)[C@@H](O)[C@H](OC(=O)/C=C/c2ccc(O)c(O)c2)C1` [compound 1, methyl chlorogenate] showed a half-inhibitory concentration (IC50) of 425 µM.

On XO [1], `O=C(O)c1ccccc1` [compound 8, benzoic acid] had an IC50 of 104 µM. Moreover, the “inhibition of XO at low concentration (in words)” value against XO [1] (concentration lower than 200 µM) is given as “high inhibition”.

Turning to `O=C(O)/C=C/c1ccc(O)c(O)c1` [compound 6, caffeic acid], the concentration for half-maximal inhibition (IC50) against XO [1] is 242 µM.
